Source: ChEMBL document CHEMBL1144615, “Neuroprotective effects of kobophenol A against the withdrawal of tropic support, nitrosative stress, and mitochondrial damage in SH-SY5Y neuroblastoma cells” (2007)
Activity calls are given as the source filed them. The calls are words filed in the database; no cut-off is given here.

Experiments:
SH-SY5Y [1] = assay: Reduction of paraquat-induced cell death in SH-SY5Y cells assessed as subG1 DNA content relative to control; type: functional, cell-based; details: Homo sapiens
SH-SY5Y [2] = assay: Increase in cell viability of SH-SY5Y cells in serum starved conditions at 20 ug/mL after 48 hrs by MTT assay relative to control; type: functional, Homo sapiens
SH-SY5Y [3] = assay: Reduction on paraquat-induced ROS production in SH-SY5Y cells; type: functional, Homo sapiens; parameters: scale not given: the % may be the effect or the level left
SH-SY5Y [4] = assay: Effect on 2 mM paraquat-induced intracellular calcium level in SH-SY5Y cells after 8 hrs relative to control; type: functional, Homo sapiens
SH-SY5Y [5] = assay: Inhibition of 3 mM sodium nitroprusside-induced cell death in SH-SY5Y cells assessed as increase in cell viability at 30 ug/mL after 24 hrs by MTT assay relative to control; type: functional, Homo sapiens
SH-SY5Y [6] = assay: Reduction of sodium nitroprusside-induced cell death in SH-SY5Y cells assessed as subG1 DNA content relative to control; type: functional, cell-based; details: Homo sapiens
SH-SY5Y [7] = assay: Increase in cell viability of SH-SY5Y cells in serum starved conditions at 10 ug/mL after 48 hrs by MTT assay relative to control; type: functional, Homo sapiens
Caspase-3 (Homo sapiens) [8] = target: T1, Caspase-3 (Homo sapiens) (UniProt P42574); assay: Decrease in paraquat-induced caspase-3 activity in SH-SY5Y cells; type: cell-based
T1 sequence (whole entry): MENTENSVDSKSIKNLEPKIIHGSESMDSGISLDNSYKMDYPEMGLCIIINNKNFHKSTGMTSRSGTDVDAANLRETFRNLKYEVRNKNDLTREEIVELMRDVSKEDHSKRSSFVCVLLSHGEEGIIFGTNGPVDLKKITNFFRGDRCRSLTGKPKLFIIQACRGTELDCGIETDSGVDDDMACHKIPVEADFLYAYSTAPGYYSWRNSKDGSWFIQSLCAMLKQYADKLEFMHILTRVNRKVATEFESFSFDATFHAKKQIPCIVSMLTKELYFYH

SH-SY5Y [9] = assay: Effect on sodium nitroprusside-induced intracellular calcium level in SH-SY5Y cells after 8 hrs relative to control; type: functional, Homo sapiens
SH-SY5Y [10] = assay: Inhibition of 2 mM paraquat-induced cell death in SH-SY5Y cells assessed as increase in cell viability at 10 ug/mL after 24 hrs by MTT assay relative to control; type: functional, Homo sapiens
Caspase-9 (Homo sapiens) [11] = target: T2, Caspase-9 (Homo sapiens) (UniProt P55211); assay: Decrease in paraquat-induced caspase 9 activity in SH-SY5Y cells; type: cell-based
T2 sequence (whole entry): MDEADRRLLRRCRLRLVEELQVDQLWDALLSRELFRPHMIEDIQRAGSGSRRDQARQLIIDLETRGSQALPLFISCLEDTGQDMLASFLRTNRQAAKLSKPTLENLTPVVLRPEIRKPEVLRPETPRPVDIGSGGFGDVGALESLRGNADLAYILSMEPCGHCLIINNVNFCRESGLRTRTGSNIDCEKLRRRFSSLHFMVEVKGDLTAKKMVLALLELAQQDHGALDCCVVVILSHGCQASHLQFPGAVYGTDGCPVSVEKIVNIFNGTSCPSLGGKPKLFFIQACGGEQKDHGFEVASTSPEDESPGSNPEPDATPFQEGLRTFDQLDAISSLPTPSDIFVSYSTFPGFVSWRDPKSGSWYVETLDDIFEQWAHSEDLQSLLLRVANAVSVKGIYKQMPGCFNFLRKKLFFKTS

SH-SY5Y [12] = assay: Effect on 2 mM paraquat-induced intracellular calcium level in SH-SY5Y cells after 24 hrs relative to contro; type: functional, Homo sapiens
SH-SY5Y [13] = assay: Inhibition of 1 mM sodium nitroprusside-induced cell death in SH-SY5Y cells assessed as increase in cell viability at 30 ug/mL after 24 hrs by MTT assay relative to control; type: functional, Homo sapiens
SH-SY5Y [14] = assay: Increase in cell viability of SH-SY5Y cells in serum starved conditions at 30 ug/mL after 48 hrs by MTT assay relative to control; type: functional, Homo sapiens
SH-SY5Y [15] = assay: Reduction of nitric oxide-induced intracellular calcium level in SH-SY5Y cells; type: functional, cell-based; details: Homo sapiens
SH-SY5Y [16] = assay: Inhibition of 5 mM sodium nitroprusside-induced cell death in SH-SY5Y cells assessed as increase in cell viability at 30 ug/mL after 24 hrs by MTT assay relative to control; type: functional, Homo sapiens
SH-SY5Y [17] = assay: Reduction of sodium nitroprusside-induced nitric oxide production in SH-SY5Y cells; type: functional, cell-based; details: Homo sapiens
SH-SY5Y [18] = assay: Effect on 3 mM sodium nitroprusside-induced mitochondrial transmembrane potential level in SH-SY5Y cells after 24 hrs; type: functional, Homo sapiens
SH-SY5Y [19] = assay: Reduction on sodium nitroprusside-induced ROS production in SH-SY5Y cells; type: functional, Homo sapiens; parameters: scale not given: the % may be the effect or the level left
Caspase-3 (Homo sapiens) [20] = target: T1, Caspase-3 (Homo sapiens); assay: Decrease in sodium nitroprusside-induced caspase-3 activity in SH-SY5Y cells; type: cell-based
SH-SY5Y [21] = assay: Inhibition of 2 mM paraquat-induced cell death in SH-SY5Y cells assessed as increase in cell viability at 30 ug/mL after 24 hrs by MTT assay relative to control; type: functional, Homo sapiens
Caspase-9 (Homo sapiens) [22] = target: T2, Caspase-9 (Homo sapiens); assay: Decrease in sodium nitroprusside-induced caspase 9 activity in SH-SY5Y cells; type: cell-based
SH-SY5Y [23] = assay: Effect on 3 mM sodium nitroprusside-induced mitochondrial transmembrane potential level in SH-SY5Y cells after 8 hrs; type: functional, Homo sapiens
SH-SY5Y [24] = assay: Effect on sodium nitroprusside-induced intracellular calcium level in SH-SY5Y cells after 25 hrs relative to control; type: functional, Homo sapiens
SH-SY5Y [25] = assay: Inhibition of 2 mM paraquat-induced cell death in SH-SY5Y cells assessed as increase in cell viability at 20 ug/mL after 24 hrs by MTT assay relative to control; type: functional, Homo sapiens

SMILES: Oc1ccc([C@H]2Oc3cc(O)cc([C@@H]4[C@H](c5cc(O)cc(O)c5)[C@@H](c5ccc(O)cc5)O[C@H]4c4ccc(O)cc4)c3[C@@H]2c2cc(O)c3c(c2)[C@@H](c2cc(O)cc(O)c2)[C@H](c2ccc(O)cc2)O3)cc1 [KOBOPHENOL A]
- Activity (SH-SY5Y [1]): Active
- Activity (SH-SY5Y [2]): 91.4%
- Activity (SH-SY5Y [3]): 103.6%
- Activity (SH-SY5Y [4]): 99.1%
- Activity (SH-SY5Y [5]): 109.8%
- Activity (SH-SY5Y [6]): Active
- Activity (SH-SY5Y [7]): 105.7%
- Activity (Caspase-3 (Homo sapiens) [8]): Active
- Activity (SH-SY5Y [9]): 96.1%
- Activity (SH-SY5Y [10]): 66.3%
- Activity (Caspase-9 (Homo sapiens) [11]): Dose-dependent effect
- Activity (SH-SY5Y [12]): 98.3%
- Activity (SH-SY5Y [13]): 108.6%
- Activity (SH-SY5Y [14]): 78.7%
- Activity (SH-SY5Y [15]): Active
- Activity (SH-SY5Y [16]): 88.1%
- Activity (SH-SY5Y [17]): inactive
- Activity (SH-SY5Y [18]): 119.3%
- Activity (SH-SY5Y [19]): 103.4%
- Activity (Caspase-3 (Homo sapiens) [20]): Dose-dependent effect
- Activity (SH-SY5Y [21]): 102.5%
- Activity (Caspase-9 (Homo sapiens) [22]): Dose-dependent effect
- Activity (SH-SY5Y [23]): 128.3%
- Activity (SH-SY5Y [24]): 96.1%
- Activity (SH-SY5Y [25]): 85.6%
